Values quoted from earlier work as cited in PubChem BioAssay AID1259409 (Chemical Carcinogenesis Research Information System (CCRIS), 2018).

System: rodent chemically induced tumor inhibition, incidence and multiplicity
Test: CCRIS tumor inhibitor studies

In the case of `COc1ccc2[nH]cc(CCNC(C)=O)c2c1`, the “tumour outcome (control, treated, inhibition, significance)” value (Carcinogen: 1,2-DIMETHYLHYDRAZINE [540-73-8], Dose [Inhibitor]: 20 UG/ML IN DRINKING WATER 14 HR/D AT NIGHT TIME FOR 6 MONTHS (STUDY DURATION: 6 MONTHS), Route [Inhibitor]: ORAL, Species: RAT, Strain/Sex: LIO/FEMALE, Target Tissue: Type of Lesion: ASCENDING COLON: TUMOR, Dose [Carcinogen]: 21 MG/KG BW 1X/WK FOR 15 WK (STUDY DURATION: 6 MONTHS), Promoter: NONE) is listed as 23/25 (92.0%), 15/23 (65.2%), 29%, p<0.01, the “tumour outcome (control, treated, inhibition, significance)” value (Carcinogen: 1,2-DIMETHYLHYDRAZINE [540-73-8], Dose [Inhibitor]: 20 UG/ML IN DRINKING WATER 14 HR/D AT NIGHT TIME FOR 6 MONTHS (STUDY DURATION: 6 MONTHS), Route [Inhibitor]: ORAL, Species: RAT, Strain/Sex: LIO/FEMALE, Target Tissue: Type of Lesion: DESCENDING COLON: TUMOR, Dose [Carcinogen]: 21 MG/KG BW 1X/WK FOR 15 WK (STUDY DURATION: 6 MONTHS), Promoter: NONE) is listed as 25/25 (100.0%), 23/23 (100.0%), 0%, not significant and the “tumour outcome (control, treated, inhibition, significance)” value (Carcinogen: 1,2-DIMETHYLHYDRAZINE [540-73-8], Dose [Inhibitor]: 20 UG/ML IN DRINKING WATER 14 HR/D AT NIGHT TIME FOR 6 MONTHS (STUDY DURATION: 6 MONTHS), Route [Inhibitor]: ORAL, Species: RAT, Strain/Sex: LIO/FEMALE, Target Tissue: Type of Lesion: DUODENUM: TUMOR, Dose [Carcinogen]: 21 MG/KG BW 1X/WK FOR 15 WK (STUDY DURATION: 6 MONTHS), Promoter: NONE) is listed as 8/25 (32.0%), 5/23 (21.7%), 32%, not significant. The “tumour outcome (control, treated, inhibition, significance)” value (Carcinogen: 1,2-DIMETHYLHYDRAZINE [540-73-8], Dose [Inhibitor]: 20 UG/ML IN DRINKING WATER 14 HR/D AT NIGHT TIME FOR 6 MONTHS (STUDY DURATION: 6 MONTHS), Route [Inhibitor]: ORAL, Species: RAT, Strain/Sex: LIO/FEMALE, Target Tissue: Type of Lesion: JEJUNUM AND ILIUM: TUMOR, Dose [Carcinogen]: 21 MG/KG BW 1X/WK FOR 15 WK (STUDY DURATION: 6 MONTHS), Promoter: NONE) was 4/25 (16.0%), 1/23 (4.3%), 73%, p<0.05, the “tumour outcome (control, treated, inhibition, significance)” value (Carcinogen: 1,2-DIMETHYLHYDRAZINE [540-73-8], Dose [Inhibitor]: 20 UG/ML IN DRINKING WATER 14 HR/D AT NIGHT TIME FOR 6 MONTHS (STUDY DURATION: 6 MONTHS), Route [Inhibitor]: ORAL, Species: RAT, Strain/Sex: LIO/FEMALE, Target Tissue: Type of Lesion: RECTUM: TUMOR, Dose [Carcinogen]: 21 MG/KG BW 1X/WK FOR 15 WK (STUDY DURATION: 6 MONTHS), Promoter: NONE) was 11/25 (44.0%), 11/23 (47.8%), -9%, not significant and the “tumour outcome (control, treated, inhibition, significance)” value (Carcinogen: 7, 12-DIMETHYLBENZ(A)ANTHRACENE [57-97-6], Dose [Inhibitor]: 20 UG/ML IN DRINKING WATER, 17 HR/D BEGINNING 5 D BEFORE FIRST CARCINOGEN DOSE FOR 13 WK (STUDY DURATION: 13 WK), Route [Inhibitor]: ORAL, Species: RAT, Strain/Sex: SPRAGUE-DAWLEY/FEMALE, Target Tissue: Type of Lesion: MAMMARY GLAND: TUMOR, Dose [Carcinogen]: 10 MG THREE TIMES BETWEEN POSTNATAL DAYS 45-59) was 23/24 (95.8%), 21/28 (75%), 21.5%, p<0.05. The “tumour outcome (control, treated, inhibition, significance)” value (Carcinogen: 7,12-DIMETHYLBENZ[A]ANTHRACENE [57-97-6], Dose [Inhibitor]: 10 MG/KG BW DAILY BETWEEN 45 AND 59 D OF AGE, Route [Inhibitor]: INTRAGASTRIC (GAVAGE) IN HYDROXYETHYLCELLULOSE SOLUTION, Species: RAT, Strain/Sex: SPRAGUE-DAWLEY/FEMALE, Target Tissue: Type of Lesion: MAMMARY: ADENOCARCINOMA, Dose [Carcinogen]: 75 MG/KG BW IN SESAME OIL AT 60 D OF AGE (STUDY DURATION: 1 YR)) was 75%, 43%, 43%, p=0.04 (at 6 mo), the “tumour outcome (control, treated, inhibition, significance)” value (Carcinogen: 7,12-DIMETHYLBENZ[A]ANTHRACENE [57-97-6], Dose [Inhibitor]: 10 MG/KG BW DAILY FOR 6 MO AFTER CARCINOGEN ADMINISTRATION, Route [Inhibitor]: INTRAGASTRIC (GAVAGE), Species: RAT, Strain/Sex: SPRAGUE-DAWLEY/FEMALE, Target Tissue: Type of Lesion: MAMMARY: ADENOCARCINOMA, Dose [Carcinogen]: 75 MG/KG BW AT 55 D OF AGE (STUDY DURATION: 1 YR)) was 75%, 35%, 53%, p=0.01 (at 6 mo) and the “tumour outcome (control, treated, inhibition, significance)” value (Carcinogen: 7,12-DIMETHYLBENZ[A]ANTHRACENE [57-97-6], Dose [Inhibitor]: 20 UG/ML IN DRINKING WATER 15 HR/D FOR 4 MONTHS BEGINNING AT THE TIME OF THE FIRST CARCINOGEN DOSE (STUDY DURATION: 6 MO, Route [Inhibitor]: ORAL, Species: MOUSE, Strain/Sex: CBA/FEMALE, Target Tissue: Type of Lesion: VAGINA AND CERVIX: TUMOR, Dose [Carcinogen]: 0.1% IN TRIETHYLENEGLYCOL IN A POLYURETHANE SPONGE 3 HR/D 2 D/WK FOR 2 MONTHS (STUDY DURATION: 6 MO), Promoter: NONE) was 7/20 (35%), 3/20 (15%), 57%, not significant. The “tumour outcome (control, treated, inhibition, significance)” value (Carcinogen: 7,12-DIMETHYLBENZ[A]ANTHRACENE, 57-97-6, Dose [Inhibitor]: 0, 20 UG/ML IN DRINKING WATER 17 HR/D 4 D/WK FOR 26 WK BEGINNING 45 D OF AGE (STUDY DURATION: 26 WK), Route [Inhibitor]: ORAL, Species: RAT, Strain/Sex: SD/FEMALE, Target Tissue: Type of Lesion: MAMMARY GLAND: TUMOR, Dose [Carcinogen]: 10 UG/ANIMAL IN CORN OIL INTRAGASTRICALLY ON 45, 50, 55 D OF AGE) was 100%, 42%, 58%, p<0.001, the “tumour outcome (control, treated, inhibition, significance)” value (Carcinogen: 7,12-DIMETHYLBENZ[A]ANTHRACENE, 57-97-6, Dose [Inhibitor]: 0, 20 UG/ML IN DRINKING WATER FOR 17 HR/D FOR THE DURATION OF STUDY (STUDY DURATION: 180 D), Route [Inhibitor]: ORAL, Species: RAT, Strain/Sex: SPRAGUE-DAWLEY/FEMALE, Target Tissue: Type of Lesion: MAMMARY GLAND: TUMOR, Dose [Carcinogen]: 20 MG/ANIMAL GAVAGE ONCE 10 D POST INHIBITOR TREATMENT (STUDY DURATION: 178 D), Promoter: NONE) was 16/24 (66.6%), 15/25 (60.0%), 10%, not significant and the “tumour outcome (control, treated, inhibition, significance)” value (Carcinogen: GAMMA RAYS: 7,12-DIMETHYLBENZ[A]ANTHRACENE [57-97-6], Dose [Inhibitor]: 0, 100 UG/ML IN DRINKING WATER FOR 28 WK (STUDY DURATION: 28 WK), Route [Inhibitor]: ORAL, Species: RAT, Strain/Sex: WISTAR: HAN/FEMALE, Target Tissue: Type of Lesion: MAMMARY GLAND: TUMOR, Dose [Carcinogen]: 96 MGY FORM CO-60 SOURCE FOR 2 WK (TOTAL ACCUMULATED DOSE 1.44 GY), THEN 3 DOSES OF 10 MG DMBA BY GAVAGE (STUDY DURATION, Promoter: NONE) was 48.3%, 50.0%, -3.5%, not significant.
